Experimental data taken from the supplement of paper PMC11208160.

Test: recombinant barcode read abundance after kanamycin selection (control-corrected) (log10(CPM+1)); higher = more efficient recombination; sequences stand for … in AGTGCAGAGAAAATCGGCCAGTTTTCTCTGCCTGCAGTCCGCATGCCGT…AGATTTATGCAGCGGACTGCCTTTCTCCCAAAGTGATAAACCGGACAGTATCATGGACCGGTTTTCCCGGTAATCCGTATTTGCAAGGTTGGTTTCACT; site = the 11-nt target
How it was run: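 In E. coli, a pooled library matched targets to IS621 bridge RNA target-binding loops and was introduced alongside a donor plasmid. Cells went onto chloramphenicol/ampicillin/kanamycin with 0.1 mM IPTG or onto chloramphenicol/ampicillin LB agar as control, in duplicate. Recombination efficiency, from recombinant-junction barcodes as counts per million, is averaged and control-corrected. It is reported as log10(CPM+1).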
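Note: IS621 recombinase and bridge RNA in Escherichia coli cells.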

Sequence	recombinant barcode read abundance (log10)
TAGGAACCTTGGGTTCTAACCTGTTGCCT (site AAGGAACCTAG)	0.7
TAGGAACCTTGGGTTCTAACCTGTTGCCT (site CAGGAACCTAG)	0.649
TAGGAACCTTGGGTTCTAACCTGTTGCCT (site GAGGAACCTAG)	0.0651
TAGGAACCTTGGGTTCTAACCTGTTGCCT (site TAGGAACCTAG)	2.63
TAGGACACTTGGGTTCTAACCTGTTGCCA (site TAGGACACTTG)	1.86
TAGGACACTTGGGTTCTAACCTGTTGCCA (site TCGGATACTTG)	0.198
TAGGACACTTGGGTTCTAACCTGTTGCGT (site TAGGAAACTAC)	0.378
TAGGACACTTGGGTTCTAACCTGTTGCGT (site TAGGACACTAC)	2.8
TAGGACACTTGGGTTCTAACCTGTTGCGT (site TAGGAGACTAC)	0.1
TAGGACACTTGGGTTCTAACCTGTTGCGT (site TAGGATACTAC)	0.295
TAGGACGCTTGGGTTCTAACCTGTTGCCT (site TAAGACGCTAG)	1.76
TAGGACGCTTGGGTTCTAACCTGTTGCCT (site TACGACGCTAG)	0.114
TAGGACGCTTGGGTTCTAACCTGTTGCCT (site TAGGACGCTAG)	2.53
TAGGACGCTTGGGTTCTAACCTGTTGCCT (site TATGACGCTAG)	0.286
TAGGATGCTTGGGTTCTAACCTGTTGCGT (site TAGGATGCTAC)	2.66
TAGGATGCTTGGGTTCTAACCTGTTGCGT (site TAGGATTCTAC)	0.248
TAGGCCACTTGGGTTCTAACCTGTTGCAT (site TAGGCCACTAA)	0.071
TAGGCCACTTGGGTTCTAACCTGTTGCAT (site TAGGCCACTAC)	0.0809
TAGGCCACTTGGGTTCTAACCTGTTGCAT (site TAGGCCACTAG)	0.294
TAGGCCACTTGGGTTCTAACCTGTTGCAT (site TAGGCCACTAT)	1.39
TAGGCCACTTGGGTTCTAACCTGTTGCGT (site TAGGCCACTAA)	0.522
TAGGCCACTTGGGTTCTAACCTGTTGCGT (site TAGGCCACTAC)	2.85

Sequence	recombinant barcode read abundance (log10)
TAGGCCACTTGGGTTCTAACCTGTTGCGT (site TAGGCCACTAG)	0.0599
TAGGCCACTTGGGTTCTAACCTGTTGCGT (site TAGGCCACTAT)	1.7
TAGGCGCCTTGGGTTCTAACCTGTTGCTT (site TAGGCGCCTAA)	1.03
TAGGCGCCTTGGGTTCTAACCTGTTGCTT (site TAGGCGCCTAC)	0.263
TAGGCGCCTTGGGTTCTAACCTGTTGCTT (site TAGGCGCCTAG)	0.193
TAGGCGCCTTGGGTTCTAACCTGTTGCTT (site TAGGCGCCTAT)	0.0771
TAGGCTCCTTGGGTTCTAACCTGTTGCAT (site TAGGCTCCTAT)	1.19
TAGGCTCCTTGGGTTCTAACCTGTTGCAT (site TAGGCTCCTCT)	0.0701
TAGGCTCCTTGGGTTCTAACCTGTTGCAT (site TAGGCTCCTGT)	0.0892
TAGGCTCCTTGGGTTCTAACCTGTTGCAT (site TAGGCTCCTTT)	0.0761
TAGGGCACTTGGGTTCTAACCTGTTGCTG (site TAGGGCACTCA)	2.1
TAGGGCACTTGGGTTCTAACCTGTTGCTG (site TAGGGCACTCG)	0.888
TAGGGCGCTTGGGTTCTAACCTGTTGCCT (site TAAGGAGCTAG)	0.204
TAGGGCGCTTGGGTTCTAACCTGTTGCCT (site TAGGGCGCTAG)	1.01
TAGGTGCCTTGGGTTCTAACCTGTTGCAT (site TAGGTACCTAT)	1.21
TAGGTGCCTTGGGTTCTAACCTGTTGCAT (site TAGGTCCCTAT)	0.0424
TAGGTGCCTTGGGTTCTAACCTGTTGCAT (site TAGGTGCCTAT)	1.79
TAGGTGCCTTGGGTTCTAACCTGTTGCAT (site TAGGTTCCTAT)	0.167
TAGGTGCCTTGGGTTCTAACCTGTTGCGG (site TAGGTGACTCC)	0.134
TAGGTGCCTTGGGTTCTAACCTGTTGCGG (site TAGGTGCCTCC)	2.99
TAGTAAGCTTGGGTTCTAACCTGTTGCTG (site TAGTAAGCTCA)	0.921
TAGTAAGCTTGGGTTCTAACCTGTTGCTG (site TAGTACGCTCT)	0.142

Sequence	recombinant barcode read abundance (log10)
TAGTACACTTGGGTTCTAACCTGTTGCAC (site ACCATGTCTCC)	0.0598
TAGTACACTTGGGTTCTAACCTGTTGCAC (site TAGTACACTGT)	1.55
TAGTACTCTTGGGTTCTAACCTGTTGCTA (site TAGTACTCTAA)	0.0398
TAGTACTCTTGGGTTCTAACCTGTTGCTA (site TAGTACTCTCA)	0.0859
TAGTACTCTTGGGTTCTAACCTGTTGCTA (site TAGTACTCTGA)	0.164
TAGTACTCTTGGGTTCTAACCTGTTGCTA (site TAGTACTCTTA)	1.58
TAGTACTCTTGGGTTCTAACCTGTTGCTT (site TAGTACTCTAA)	1.14
TAGTACTCTTGGGTTCTAACCTGTTGCTT (site TAGTACTCTCA)	0.0325
TAGTACTCTTGGGTTCTAACCTGTTGCTT (site TAGTACTCTGA)	0.199
TAGTACTCTTGGGTTCTAACCTGTTGCTT (site TAGTACTCTTA)	0.0259
TAGTATCCTTGGGTTCTAACCTGTTGCGT (site TAGTATCCTAC)	1.87
TAGTATCCTTGGGTTCTAACCTGTTGCGT (site TAGTCTCCTAC)	0.0759
TAGTATCCTTGGGTTCTAACCTGTTGCGT (site TAGTGTCCTAC)	0.0306
TAGTATCCTTGGGTTCTAACCTGTTGCGT (site TAGTTTCCTAC)	0.21
TAGTCCACTTGGGTTCTAACCTGTTGCTA (site AAGTCCACTAA)	0.239
TAGTCCACTTGGGTTCTAACCTGTTGCTA (site TAGTCCACTTA)	1.15
TAGTCCGCTTGGGTTCTAACCTGTTGCCG (site TAGCCCTCTCG)	0.214
TAGTCCGCTTGGGTTCTAACCTGTTGCCG (site TAGTCCGCTCG)	0.446
TAGTCCTCTTGGGTTCTAACCTGTTGCTG (site TAGTCCTCTAA)	0.048
TAGTCCTCTTGGGTTCTAACCTGTTGCTG (site TAGTCCTCTCA)	1.02
TAGTCCTCTTGGGTTCTAACCTGTTGCTG (site TAGTCCTCTGA)	0.14
TAGTCCTCTTGGGTTCTAACCTGTTGCTG (site TAGTCCTCTTA)	0.185

Sequence	recombinant barcode read abundance (log10)
TAGTCTTCTTGGGTTCTAACCTGTTGCGT (site AAGTATTCTAC)	0.066
TAGTCTTCTTGGGTTCTAACCTGTTGCGT (site TAGTCTTCTAC)	0.681
TAGTGGTCTTGGGTTCTAACCTGTTGCAT (site TAGTGGTCTAT)	2.04
TAGTGGTCTTGGGTTCTAACCTGTTGCAT (site TAGTGGTCTTA)	0.215
TAGTGTCCTTGGGTTCTAACCTGTTGCCA (site TAGTGTCCTTG)	0.357
TAGTGTCCTTGGGTTCTAACCTGTTGCCA (site TGGTGTGCTTG)	0.142
TAGTGTGCTTGGGTTCTAACCTGTTGCGT (site TAGTGTGCTAA)	0.0341
TAGTGTGCTTGGGTTCTAACCTGTTGCGT (site TAGTGTGCTAC)	1.66
TAGTGTTCTTGGGTTCTAACCTGTTGCAT (site TAGTGTCCTAT)	0.109
TAGTGTTCTTGGGTTCTAACCTGTTGCAT (site TAGTGTTCTAT)	0.918
TAGTTAGCTTGGGTTCTAACCTGTTGCCA (site TAGTTAGCTAG)	0.0117
TAGTTAGCTTGGGTTCTAACCTGTTGCCA (site TAGTTAGCTCG)	0.17
TAGTTAGCTTGGGTTCTAACCTGTTGCCA (site TAGTTAGCTGG)	0.0516
TAGTTAGCTTGGGTTCTAACCTGTTGCCA (site TAGTTAGCTTG)	0.418
TAGTTCACTTGGGTTCTAACCTGTTGCAT (site TAGATCACTAT)	0.0793
TAGTTCACTTGGGTTCTAACCTGTTGCAT (site TAGCTCACTAT)	0.0603
TAGTTCACTTGGGTTCTAACCTGTTGCAT (site TAGGTCACTAT)	0.159
TAGTTCACTTGGGTTCTAACCTGTTGCAT (site TAGTTCACTAT)	0.382
TAGTTTACTTGGGTTCTAACCTGTTGCAG (site ACTCCAGCTAG)	0.294
TAGTTTACTTGGGTTCTAACCTGTTGCAG (site TAGTTTACTCT)	0.272
